Assay results reported in US8841277B2, “Methods for treating non-small cell lung cancer using 5-azacytidine” (Celgene Corporation, priority 2009, dated 2014).
Entries after “also recorded” stand apart in the source; their conditions may differ.

Tests used:
[1] = tested on: H460 cells; experiment: Apoptosis (AnnexinV-FITC/7-AAD), H460; format: cell-based; conditions: 0.3-10 μM
Excerpt: (§1) For cell cycle distribution, cells were stained with the NIM-DAPI reagent (Beckman Coulter, Inc.; Fullerton, Calif.). For measurement of early- and late-apoptotic cell populations, cells were stained with AnnexinV-FITC and 7-AAD reagents (Beckman Coulter, Inc.). Samples were processed according to manufacturer's instructions and analyzed on a Cell Lab Quanta MPL flow cytometer (Beckman Coulter, Inc.). […] Data were also collected for untreated cells as control.

[2] = tested on: A549 cells; experiment: Apoptosis (AnnexinV-FITC/7-AAD), A549; format: cell-based; conditions: 48-hour treatment, 0.3-10 μM
Excerpt: as §1

[3] = tested on: NSCLC cell types; experiment: Apoptosis (AnnexinV-FITC/7-AAD), summary; format: cell-based; conditions: summary of studies
Excerpt: as §1

[4] = tested on: LINE-1 elements in A549 cells; experiment: LINE-1 Methylation Assay, A549; format: cell-based
Procedure: (§2) Genomic DNA was purified from cells using the DNeasy Blood and Tissue Kit (Qiagen; Valencia, Calif.), according to the manufacturer's instructions. DNA yield was quantitated with a NanoDrop 8000 spectrophotometer (Thermo Fisher Scientific, Inc.). DNAs (1 μg/sample) were submitted to EpigenDx (Worcester, Mass.) for bisulfate conversion and pyrosequencing of LINE-1 elements. Briefly, 1 μg of DNA was bisulfite-treated using the Zymo DNA Methylation Kit (Zymo Research; Orange, Calif.) and eluted in 10 μL volume. DNA eluate (1 μL) was used for PCR with biotinylated primers to the LINE-1 locus, converting the PCR product to single-stranded DNA templates. PCR products (each 10 μL) were sequenced by Pyrosequencing PSQ96 HS System (Biotage AB), following the manufacturer's instructions (Biotage; Kungsgatan, Sweden). The methylation status of each locus was analyzed individually as a T/C SNP using QCpG software (Biotage). Percent LINE-1 methylation represents the average percent methylation of four CpG sites in duplicate samples.
(§3) At the highest drug concentration tested (3 μM), LINE-1 methylation was less affected, possibly due to reduced drug incorporation as a result of inhibited cell proliferation.

[5] = tested on: LINE-1 elements in H1299 cells; experiment: LINE-1 Methylation Assay, H1299; format: cell-based
Procedure: as §2, §3

[6] = tested on: A549 cells; experiment: Western analysis of DNA damage and apoptosis markers, A549; format: cell-based; conditions: 0.3-10 μM, 24 h to 72 h (3 days)
Procedure: (§4) These studies also examined apoptosis using an assay for PARP cleavage. Cells studied included H460, A549, and H1299 cells.
(§5) For western analyses of protein levels, cells were washed with PBS and lysed with RIPA buffer (Cell Signaling Technology, Inc.; Danvers, Mass.) containing 350 mM NaCl and 0.1% SDS. Cell lysates were sonicated with two 5-second bursts under low amplitude (20%) using the Digital Sonic Dismembrator (Thermo Fisher Scientific, Inc.; Waltham, Mass.). Proteins were separated on 4-12% Bis-Tris NuPAGE gels (Life Technologies Corporation) and transferred to nitrocellulose membranes. DNMT1, phos-Histone-H2AX(Ser139), total Histone-H2AX, cleaved-PARP, p21, p53, and alpha-tubulin were detected using the Li-Cor Odyssey imaging system (Li-Cor Biotechnology; Lincoln, Nebr.), following incubation with the appropriate primary and secondary antibodies. The phos-Histone-H2AX(Ser139), cleaved-PARP, and p21 antibodies were from Cell Signaling Technology, Inc. The p53 and total Histone-H2AX (C-20) antibodies were from Santa Cruz Biotechnology, Inc. (Santa Cruz, Calif.). The alpha-tubulin and DNMT1 antibodies were purchased from EMD Chemicals, Inc. (Gibbstown, N.J.) and Abcam, Inc. (Cambridge, Mass.), respectively. The goat anti-Rabbit IRDye 680, goat anti-Mouse IRDye 800CW, and donkey anti-Goat IRDye 800CW secondary antibodies were from Li-Cor Biotechnology.

[7] = tested on: H1299 cells; experiment: Western analysis of DNA damage and apoptosis markers, H1299; format: cell-based
Procedure: as §4, §5

[8] = tested on: DNMT1; experiment: DNMT1 protein depletion, H460; format: cell-based; conditions: dose range, 20 hours
Procedure: as §5
Reduced DNMT1 levels were detected in these cell lines as early as 4 hours after drug treatment (FIG. 17).

[9] = tested on: A549 cells; experiment: Gene expression microarray analysis, A549; format: cell-based, human; conditions: A549, 48 hours; for Downregulated Genes: Genes in Common (number) / Upregulated Genes: Genes in Common (number): regulated by both AZA and DAC;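 as to Downregulated Genes: AZA-Specific / DAC-Specific Genes (number): drug dose range 0.3 to 3 µM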;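 as to Downregulated Genes: Genes in Common (number): drug dose range 0.3 to 3 µM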;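 as to Upregulated Genes: AZA-Specific / DAC-Specific Genes (number): drug dose range 0.3 to 3 µM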;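 as to Upregulated Genes: Genes in Common (number): drug dose range 0.3 to 3 µM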
Procedure: (§6) Cells were lysed using the TRIzol reagent (Life Technologies Corporation) and total RNA was isolated using miRNeasy (Qiagen). Double-stranded cDNA and biotin-labeled cRNA were synthesized using 100 ng of total RNA using Ambion's MessageAmp Premier RNA Amplification Kit (ABI; Foster City, Calif.). Biotin-labeled cRNA, at 10 μg, was fragmented and hybridized to each human U133A 2.0 genechip (Affymetrix; Santa Clara, Calif.). The GC-RMA algorithm was used for normalization and all analyses were done using GeneSpring 7.3 (Agilent; Santa Clara, Calif.). Averaged signals from biological duplicate samples were used to determine fold change (Treated vs. Untreated), with an absolute fold change of ≧1.7 defining regulated genes. NextBio was used to identify regulated Gene Ontology biogroups from lists of regulated genes. The top 15 biogroups are those with the lowest p-values calculated within NextBio.
(§7) The number of genes modulated in common between the two drugs was low.
(§8) Functional groupings of the modulated genes were determined using Gene Ontology classifications in Nextbio (http://www.nextbio.com/).

[10] = tested on: H1299 cells; experiment: Gene expression microarray analysis, H1299; format: cell-based, human; conditions: H1299, 48 hours; for Downregulated Genes: Genes in Common (number) / Upregulated Genes: Genes in Common (number): regulated by both AZA and DAC;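 as to all read-outs here: drug dose range 0.3 to 3 µM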
Procedure: as §6, §7, §8

[11] = 0.3-10 μM, up to 3 days of treatment

## Nc1ncn([C@@H]2O[C@H](CO)[C@@H](O)[C@H]2O)c(=O)n1 [AZA, 4-amino-1-β-D-ribofuranosyl-1,3,5-triazin-2(1H)-one]
[1]; 30-hour treatment
  Early- and late-apoptotic cell populations (AnnexinV/7-AAD): dramatic increase in early-apoptotic (AnnexinV^+7-AAD^−) and late-apoptotic (AnnexinV^+7-AAD^−) cells
[1]; 48-hour treatment
  Early- and late-apoptotic cell populations (AnnexinV/7-AAD): dramatic increase in early-apoptotic (AnnexinV^+7-AAD^−) cells
[2]
  Early- and late-apoptotic cell populations (AnnexinV/7-AAD): dramatic increase in early-apoptotic (AnnexinV^+ 7-AAD^−) and late-apoptotic (AnnexinV^+ 7-AAD^+) cells
[3]
  Early- and late-apoptotic cell populations (AnnexinV/7-AAD): dramatic increase in early-apoptotic (AnnexinV+ 7-AAD−) and late-apoptotic (AnnexinV+ 7-AAD+) cells
[4]; 48 or 72 hours
  Concentration of peak hypomethylation (LINE-1): 0.3-1 μM
[4]; 48 hours or 72 hours
  DNA hypomethylation (LINE-1 methylation): induced DNA hypomethylation; also recorded: caused a decrease in LINE-1 methylation
[5]; 48 or 72 hours
  Concentration of peak hypomethylation (LINE-1): 0.3-1 μM
[5]; 48 hours or 72 hours
  DNA hypomethylation (LINE-1 methylation): induced DNA hypomethylation; also recorded: caused a decrease in LINE-1 methylation
[6]
  Induction of Histone H2AX phosphorylation (marker of DNA damage): induced
  Induction of PARP cleavage (marker of apoptosis): induced
[7]
  Concentrations affecting Histone H2AX phosphorylation and PARP cleavage: above 3 μM
[7]; [11]
  Induction of Histone H2AX phosphorylation: induced
  Induction of PARP cleavage: induced
[8]
  DNMT1 protein levels: significantly reduced
[9]; 0.3 μM
  Downregulated Genes: AZA-Specific / DAC-Specific Genes (number): 14
  Downregulated Genes: Genes in Common (number): 11
  Upregulated Genes: Genes in Common (number): 17
[9]; 0.3 μM, fold change ≧1.7
  Upregulated Genes: AZA-Specific / DAC-Specific Genes (number): 16
[9]; 1.0 μM
  Downregulated Genes: AZA-Specific / DAC-Specific Genes (number): 273
  Upregulated Genes: AZA-Specific / DAC-Specific Genes (number): 279
  Downregulated Genes: Genes in Common (number): 30
  Upregulated Genes: Genes in Common (number): 45
[9]; 3.0 μM
  Downregulated Genes: AZA-Specific / DAC-Specific Genes (number): 560
  Upregulated Genes: AZA-Specific / DAC-Specific Genes (number): 636
  Downregulated Genes: Genes in Common (number): 55
  Upregulated Genes: Genes in Common (number): 66
[9]
  Regulation of genes in the Response to DNA Damage Stimulus/DNA Repair biogroup: general upregulation
[10]; 0.3 μM
  Downregulated Genes: AZA-Specific / DAC-Specific Genes (number): 33
  Upregulated Genes: AZA-Specific / DAC-Specific Genes (number): 10
  Downregulated Genes: Genes in Common (number): 45
  Upregulated Genes: Genes in Common (number): 55
[10]; 1.0 μM
  Downregulated Genes: AZA-Specific / DAC-Specific Genes (number): 393
  Upregulated Genes: AZA-Specific / DAC-Specific Genes (number): 435
  Downregulated Genes: Genes in Common (number): 107
  Upregulated Genes: Genes in Common (number): 135
[10]; 3.0 μM
  Downregulated Genes: AZA-Specific / DAC-Specific Genes (number): 991
  Upregulated Genes: AZA-Specific / DAC-Specific Genes (number): 1368
  Downregulated Genes: Genes in Common (number): 153
  Upregulated Genes: Genes in Common (number): 173
